One assay has as its target NK1 receptor (Homo sapiens, UniProt P25103). Kind of assay: neurokinin receptor binding assay, NK1. The text has this:
(§1) The in vitro and in vivo activity of the compounds of formula I can be determined by various procedures known in the art, such as a test for their ability to inhibit the activity of the NK1 agonist Substance P, an isolated hamster trachea NK2 assay, a test of the effect of NK1 antagonists on Substance P-induced airway microvascular leakage, measurement of NK2 activity in vivo in guinea pigs, measurement of bronchoconstriction due to NKA, and neurokinin receptor binding assay(s). Typical procedures are described in WO96/34857, published November 7, 1996. NK3 activity is determined by following a procedure similar to that described in the literature, e.g., Molecular Pharmacol., 48 (1995), p. 711-716.
(§2) % Inhibition is the difference between the percent of maximum specific binding (MSB) and 100%. The percent of MSB is defined by the following equation, wherein "dpm" is disintegrations per minute: % MSB =((dpm of unknown) - (dpm of nonspecific binding))/((dpm of total binding) - (dpm of nonspecific binding))X 100 [formula]

The target of the next assay is T1, NK2 receptor (Homo sapiens, UniProt P21452).
T1 sequence (P21452 1-398): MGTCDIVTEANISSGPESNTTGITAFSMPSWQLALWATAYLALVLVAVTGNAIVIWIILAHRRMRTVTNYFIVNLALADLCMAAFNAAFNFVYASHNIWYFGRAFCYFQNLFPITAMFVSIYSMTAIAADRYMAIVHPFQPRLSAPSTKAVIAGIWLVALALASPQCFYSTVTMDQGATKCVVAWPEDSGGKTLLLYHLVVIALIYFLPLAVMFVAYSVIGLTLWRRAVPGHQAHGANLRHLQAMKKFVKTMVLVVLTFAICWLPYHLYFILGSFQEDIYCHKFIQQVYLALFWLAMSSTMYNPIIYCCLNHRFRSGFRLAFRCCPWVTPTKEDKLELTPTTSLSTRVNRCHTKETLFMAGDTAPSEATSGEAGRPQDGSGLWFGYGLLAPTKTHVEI
Nature of the assay: neurokinin receptor binding assay, NK2.
Source text: as §1, §2

For orientation: Ki means a dissociation constant, usually derived from enzyme kinetics or from competition with a known ligand. Read a high Ki as a looser hold on the target.

NK1 receptor, sequence (P25103 whole entry, species assumed): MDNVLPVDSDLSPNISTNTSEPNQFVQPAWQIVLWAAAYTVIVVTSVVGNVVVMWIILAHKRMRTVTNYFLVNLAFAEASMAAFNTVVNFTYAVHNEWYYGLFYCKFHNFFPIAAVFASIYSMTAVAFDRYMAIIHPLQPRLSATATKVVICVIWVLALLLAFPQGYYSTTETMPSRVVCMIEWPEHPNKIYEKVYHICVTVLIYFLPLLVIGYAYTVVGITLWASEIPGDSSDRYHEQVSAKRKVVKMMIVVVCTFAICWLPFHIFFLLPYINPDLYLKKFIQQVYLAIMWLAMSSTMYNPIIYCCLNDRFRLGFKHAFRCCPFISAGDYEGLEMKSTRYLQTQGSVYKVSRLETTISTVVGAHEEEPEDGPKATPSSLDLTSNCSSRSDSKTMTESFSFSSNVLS

Take `CON=C(CN(C)C(=O)c1cc(C(F)(F)F)cc(C(F)(F)F)c1)C(CCN1CCC(O)(c2ccccc2)CC1)c1ccc(Cl)c(Cl)c1` (centres unmarked) [Example 11]: the Ki is 3.6 nM on NK1 receptor and 9.2 nM on NK2 receptor.

The values are drawn from patent publication EP1032561B1, “SUBSTITUTED OXIMES AS NEUROKININ ANTAGONISTS” (SCHERING CORPORATION, priority 1997, dated 1999).
